From the OligoGym collection come the findings set out here.

HELM strings list units from the 5' end as sugar, base in round brackets, then linkage (d deoxyribose, r ribose, m 2'-O-methyl, p phosphodiester). Strings are as the collection lists them; they lack the last nucleoside at the 3' end of the tested compound. [moe] = 2'-O-(2-methoxyethyl) (MOE); [sp] = phosphorothioate linkage; [m5C] = 5-methylcytosine

The target of this series is UBE3A-ATS. Nature of the series: mouse, dose not given. Conditions: ASO.
For the substance “RNA1{[moe](T)[sp].[moe](T)p.[moe](T)p.[moe](T)p.d(T)[sp].d([m5C])[sp].d([m5C])[sp].d(A)[sp].d(T)[sp].d(T)[sp].d(T)[sp].d(T)[sp].d(T)[sp].d([m5C])[sp].[moe](T)p.[moe]([m5C])p.[moe](T)p.[moe](T)[sp].[moe](A)}$$$$ (last 3' nucleoside missing)”, the 3 h FOB score was determined as 1 score 0-7.
The result for “RNA1{[moe](A)[sp].[moe](T)p.[moe](G)p.[moe](T)p.d(G)[sp].d([m5C])[sp].d(A)[sp].d(T)[sp].d(A)[sp].d([m5C])[sp].d([m5C])[sp].d([m5C])[sp].d(A)[sp].d(G)[sp].[moe](G)p.[moe](G)p.[moe](T)p.[moe](A)[sp].[moe](G)}$$$$ (last 3' nucleoside missing)” reads 1.8 score 0-7; that for “RNA1{[moe](G)[sp].[moe](T)p.[moe](G)p.[moe](A)p.[moe](G)p.[moe]([m5C])p.d(T)[sp].d(A)[sp].d(T)[sp].d([m5C])[sp].d(T)[sp].d(G)[sp].d(T)[sp].d(A)[sp].d([m5C])[sp].d(A)[sp].[moe](A)p.[moe](A)[sp].[moe](A)}$$$$ (last 3' nucleoside missing)”, 1.3 score 0-7.
The result for “RNA1{[moe](T)[sp].[moe](T)p.[moe](G)p.[moe](G)p.[moe](T)p.d(A)[sp].d(T)[sp].d(T)[sp].d(G)[sp].d(A)[sp].d([m5C])[sp].d(A)[sp].d([m5C])[sp].d([m5C])[sp].d(T)[sp].[moe]([m5C])p.[moe]([m5C])p.[moe](A)[sp].[moe](A)}$$$$ (last 3' nucleoside missing)” reads 1 score 0-7; that for “RNA1{[moe]([m5C])[sp].[moe](T)p.[moe](G)p.[moe](G)p.[moe](T)p.d(A)[sp].d(G)[sp].d(G)[sp].d(A)[sp].d(T)[sp].d([m5C])[sp].d(T)[sp].d(A)[sp].d(T)[sp].d(G)[sp].[moe](G)p.[moe]([m5C])p.[moe](A)[sp].[moe](G)}$$$$ (last 3' nucleoside missing)”, 2.3 score 0-7.
The substance “RNA1{[moe](G)[sp].[moe](T)p.[moe](A)p.[moe]([m5C])p.[moe](T)p.d([m5C])[sp].d(A)[sp].d(T)[sp].d([m5C])[sp].d(A)[sp].d(T)[sp].d(G)[sp].d(A)[sp].d(T)[sp].d([m5C])[sp].[moe](T)p.[moe](T)p.[moe](G)[sp].[moe](G)}$$$$ (last 3' nucleoside missing)” displayed a 3 h FOB score of 2 score 0-7.
Substance “RNA1{[moe](G)[sp].[moe](T)p.[moe](G)p.[moe](A)p.[moe](G)[sp].d([m5C])[sp].d(T)[sp].d(A)[sp].d(T)[sp].d([m5C])[sp].d(T)[sp].d(G)[sp].d(T)[sp].[moe](A)p.[moe]([m5C])p.[moe](A)[sp].[moe](A)}$$$$ (last 3' nucleoside missing)” yielded a 3 h FOB score of 1 score 0-7.
The substance “RNA1{[moe](T)[sp].[moe]([m5C])p.[moe](T)p.[moe](G)p.[moe]([m5C])p.d(T)[sp].d(A)[sp].d(T)[sp].d(T)[sp].d(G)[sp].d(T)[sp].d(T)[sp].d(G)[sp].d(G)[sp].d(A)[sp].[moe](T)p.[moe](A)p.[moe](T)[sp].[moe]([m5C])}$$$$ (last 3' nucleoside missing)” came in with a 3 h FOB score of 6.5 score 0-7.
Next, “RNA1{[moe](G)[sp].[moe](T)p.[moe]([m5C])p.[moe](A)p.[moe](A)p.d([m5C])[sp].d([m5C])[sp].d(A)[sp].d(A)[sp].d(T)[sp].d(T)[sp].d(T)[sp].d(G)[sp].d([m5C])[sp].d(T)[sp].[moe](A)p.[moe](T)p.[moe](T)[sp].[moe]([m5C])}$$$$ (last 3' nucleoside missing)”: 1 score 0-7; “RNA1{[moe](T)[sp].[moe](G)p.[moe](T)p.[moe](G)p.[moe]([m5C])p.[moe](A)p.d(T)[sp].d(A)[sp].d([m5C])[sp].d([m5C])[sp].d([m5C])[sp].d(A)[sp].d(G)[sp].d(G)[sp].d(G)[sp].d(T)[sp].[moe](A)p.[moe](G)[sp].[moe](G)}$$$$ (last 3' nucleoside missing)”: 0 score 0-7.
Next, “RNA1{[moe](G)[sp].[moe](G)p.[moe](A)p.[moe](T)p.[moe](T)p.d([m5C])[sp].d(A)[sp].d(A)[sp].d(T)[sp].d(A)[sp].d(G)[sp].d(T)[sp].d(G)[sp].d(T)[sp].d(A)[sp].[moe](G)p.[moe](G)p.[moe](T)[sp].[moe](G)}$$$$ (last 3' nucleoside missing)”: 7 score 0-7; “RNA1{[moe](G)[sp].[moe]([m5C])p.[moe](T)p.[moe]([m5C])p.[moe](A)p.[moe](G)p.d(T)[sp].d(T)[sp].d(A)[sp].d(G)[sp].d(G)[sp].d(T)[sp].d(T)[sp].d(A)[sp].d(G)[sp].d(T)[sp].[moe](G)p.[moe]([m5C])[sp].[moe](A)}$$$$ (last 3' nucleoside missing)”: 4 score 0-7; “RNA1{[moe](G)[sp].[moe]([m5C])p.[moe](A)p.[moe](G)p.[moe]([m5C])p.d(T)[sp].d([m5C])[sp].d(T)[sp].d(T)[sp].d(T)[sp].d(G)[sp].d(T)[sp].d(A)[sp].d(G)[sp].d(G)[sp].[moe]([m5C])p.[moe]([m5C])p.[moe]([m5C])[sp].[moe](A)}$$$$ (last 3' nucleoside missing)”: 3.3 score 0-7.
Take “RNA1{[moe]([m5C])[sp].[moe](T)p.[moe]([m5C])p.[moe]([m5C])p.[moe](A)p.d(G)[sp].d(T)[sp].d(T)[sp].d(T)[sp].d(T)[sp].d([m5C])[sp].d(G)[sp].d([m5C])[sp].d([m5C])[sp].d([m5C])[sp].[moe](G)p.[moe](T)p.[moe](T)[sp].[moe](A)}$$$$ (last 3' nucleoside missing)”: the 3 h FOB score was 3.3 score 0-7.
The result for “RNA1{[moe](A)[sp].[moe]([m5C])p.[moe](G)p.[moe]([m5C])[sp].d(A)[sp].d(A)[sp].d(T)[sp].d(G)[sp].d(T)[sp].d(A)[sp].d(T)[sp].d([m5C])[sp].[moe](A)p.[moe](G)p.[moe](G)p.[moe]([m5C])[sp].[moe](A)}$$$$ (last 3' nucleoside missing)” reads 1 score 0-7; that for “RNA1{[moe]([m5C])[sp].[moe](T)p.[moe]([m5C])p.[moe](A)p.[moe](G)p.d(T)[sp].d(T)[sp].d(A)[sp].d(G)[sp].d(G)[sp].d(T)[sp].d(T)[sp].d(A)[sp].d(G)[sp].d(T)[sp].[moe](G)p.[moe]([m5C])p.[moe](A)[sp].[moe]([m5C])}$$$$ (last 3' nucleoside missing)”, 6 score 0-7.
Next, “RNA1{[moe](G)[sp].[moe](G)p.[moe](T)p.[moe]([m5C])p.[moe](A)p.d(A)[sp].d([m5C])[sp].d([m5C])[sp].d(A)[sp].d(A)[sp].d(T)[sp].d(T)[sp].d(T)[sp].d(G)[sp].d([m5C])[sp].[moe](T)p.[moe](A)p.[moe](T)[sp].[moe](T)}$$$$ (last 3' nucleoside missing)”: 3.8 score 0-7.
The result for “RNA1{[moe](T)[sp].[moe]([m5C])p.[moe](A)p.[moe](G)[sp].d(T)[sp].d(T)[sp].d(A)[sp].d(G)[sp].d(G)[sp].d(T)[sp].d(T)[sp].d(A)[sp].[moe](G)p.[moe](T)p.[moe](G)p.[moe]([m5C])[sp].[moe](A)}$$$$ (last 3' nucleoside missing)” reads 2.3 score 0-7.
In turn, “RNA1{[moe](T)[sp].[moe]([m5C])p.[moe](A)p.[moe](G)p.[moe](A)p.d(T)[sp].d(T)[sp].d([m5C])[sp].d([m5C])[sp].d(T)[sp].d(A)[sp].d(A)[sp].d(A)[sp].d(T)[sp].d(A)[sp].[moe]([m5C])p.[moe](G)p.[moe]([m5C])[sp].[moe](A)}$$$$ (last 3' nucleoside missing)” registered a 3 h FOB score of 0 score 0-7.
Next, “RNA1{[moe](G)[sp].[moe]([m5C])p.[moe](T)p.[moe](T)p.[moe]([m5C])p.[moe](A)p.d([m5C])[sp].d([m5C])[sp].d(A)[sp].d(T)[sp].d(T)[sp].d(T)[sp].d(T)[sp].d(G)[sp].d(A)[sp].d([m5C])[sp].[moe]([m5C])p.[moe](T)[sp].[moe](T)}$$$$ (last 3' nucleoside missing)”: 1 score 0-7; “RNA1{[moe](A)[sp].[moe]([m5C])p.[moe](A)p.[moe]([m5C])p.[moe](T)p.d(T)[sp].d(T)[sp].d([m5C])[sp].d(A)[sp].d(T)[sp].d([m5C])[sp].d(A)[sp].d(G)[sp].d(T)[sp].d(T)[sp].[moe](A)p.[moe](G)p.[moe](T)[sp].[moe]([m5C])}$$$$ (last 3' nucleoside missing)”: 1 score 0-7.
For “RNA1{[moe](A)[sp].[moe]([m5C])p.[moe](T)p.[moe](G)p.d([m5C])[sp].d(T)[sp].d(T)[sp].d([m5C])[sp].d(A)[sp].d([m5C])[sp].d([m5C])[sp].d(A)[sp].d(T)[sp].d(T)[sp].[moe](T)p.[moe](T)p.[moe](G)p.[moe](A)[sp].[moe]([m5C])}$$$$ (last 3' nucleoside missing)”, the 3 h FOB score was 1 score 0-7.
Next, “RNA1{[moe](G)[sp].[moe]([m5C])p.[moe](T)p.[moe]([m5C])p.[moe](A)[sp].d(G)[sp].d(T)[sp].d(T)[sp].d(A)[sp].d(G)[sp].d(G)[sp].d(T)[sp].d(T)[sp].[moe](A)p.[moe](G)p.[moe](T)[sp].[moe](G)}$$$$ (last 3' nucleoside missing)”: 2.3 score 0-7; “RNA1{[moe](G)[sp].[moe](G)p.[moe](A)p.[moe]([m5C])p.[moe](T)p.d(T)[sp].d(G)[sp].d(T)[sp].d([m5C])[sp].d(T)[sp].d(T)[sp].d(A)[sp].d(T)[sp].d(G)[sp].d(G)[sp].[moe]([m5C])p.[moe](T)p.[moe](G)[sp].[moe]([m5C])}$$$$ (last 3' nucleoside missing)”: 1 score 0-7; “RNA1{[moe]([m5C])[sp].[moe]([m5C])p.[moe]([m5C])p.[moe](A)p.[moe](T)p.d(T)[sp].d(A)[sp].d(G)[sp].d(A)[sp].d([m5C])[sp].d([m5C])[sp].d([m5C])[sp].d(A)[sp].d(T)[sp].d(G)[sp].[moe](G)p.[moe]([m5C])p.[moe](T)[sp].[moe]([m5C])}$$$$ (last 3' nucleoside missing)”: 7 score 0-7.
Take “RNA1{[moe](G)[sp].[moe]([m5C])p.[moe]([m5C])p.[moe](A)p.[moe](G)[sp].d(G)[sp].d(T)[sp].d(G)[sp].d(T)[sp].d([m5C])[sp].d(T)[sp].d(T)[sp].d(A)[sp].[moe](T)p.[moe](A)p.[moe](T)[sp].[moe]([m5C])}$$$$ (last 3' nucleoside missing)”: the 3 h FOB score worked out at 0 score 0-7.
